Our source for the TGI and GI50 values is PubChem BioAssay (NCI).

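96-well plates; 48 h exposure; 5 concentrations. Endpoints by linear interpolation between flanking doses. Not reached: highest tested concentration assigned. At the GI50, growth is halved. TGI: total growth inhibition.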

Test systems include RPMI-8226 leukemia; SR leukemia; MOLT-4 leukemia; UACC-62 melanoma; HOP-62 NSCLC; CCRF-CEM leukemia; CAKI-1 renal; OVCAR-5 ovarian; 786-0 renal; HOP-92 NSCLC; UACC-257 melanoma; HCT-15 colon.
Holding throughout (assay): NCI anticancer screen, dose series, 48 h

Regarding `CCOC(=O)c1c(Br)c(-c2ccc(Br)cc2)c(Br)n1C`, the TGI with RPMI-8226 leukemia is 42.3 µM; in the test with SR leukemia, 26.1 µM; in the test on MOLT-4 leukemia, 37.6 µM; with UACC-62 melanoma, over 100 µM; in the test on HOP-62 NSCLC it was 53.1 µM; with CCRF-CEM leukemia, 31.5 µM. Further, the TGI with CAKI-1 renal is 75.2 µM; in the test with OVCAR-5 ovarian, 59.7 µM; in the test on 786-0 renal, 89.7 µM; in the test with HOP-92 NSCLC it was 55.7 µM; with UACC-257 melanoma, 78 µM; with HCT-15 colon it was 73 µM. For the same molecule, the GI50 with SR leukemia is 10 µM; in the test on UACC-62 melanoma it was 23.6 µM; with HOP-92 NSCLC, 14.3 µM.

In the case of `O=C1C(F)=CC(COC(c2ccccc2)(c2ccccc2)c2ccccc2)OC1n1cc(F)c(=O)[nH]c1=O` (centres undefined), the TGI was 1.31 µM in the test on RPMI-8226 leukemia; over 100 µM in the test with SR leukemia; 4.81 µM with MOLT-4 leukemia; 3.62 µM in the test on UACC-62 melanoma; 11.6 µM in the test on HOP-62 NSCLC; over 32 µM with CCRF-CEM leukemia. Further, the TGI was found to be 9.09 µM in the test with CAKI-1 renal; 4.61 µM in the test with OVCAR-5 ovarian; 3.92 µM in the test on 786-0 renal; 5.52 µM with HOP-92 NSCLC; 4.72 µM in the test with UACC-257 melanoma; 5.95 µM with HCT-15 colon.

As for `C=CC1ON(Cc2ccccc2)CCc2cc(OC)c(OC)cc21` (centres undefined), the TGI with RPMI-8226 leukemia, with SR leukemia, in the test on MOLT-4 leukemia, in the test with UACC-62 melanoma, in the test on HOP-62 NSCLC and in the test on CCRF-CEM leukemia was over 100 µM in each case. The TGI with CAKI-1 renal, in the test with OVCAR-5 ovarian, in the test with 786-0 renal, in the test on HOP-92 NSCLC, in the test on UACC-257 melanoma and in the test on HCT-15 colon was over 100 µM throughout.

For `O=C1/C(=C\c2cccc(Oc3ccccc3)c2)S(=O)(=O)C(c2ccccc2)N1c1ccccc1Cl` (centres undefined), the TGI was 56.8 µM in the test on RPMI-8226 leukemia; 62.4 µM in the test on SR leukemia; 48.9 µM in the test with MOLT-4 leukemia; 94.8 µM in the test on UACC-62 melanoma; over 100 µM in the test on HOP-62 NSCLC; 51.2 µM in the test with CCRF-CEM leukemia. For the same molecule, the TGI is over 100 µM with CAKI-1 renal; over 100 µM in the test with OVCAR-5 ovarian; over 100 µM in the test with 786-0 renal; 73.5 µM with HOP-92 NSCLC; over 100 µM in the test on UACC-257 melanoma; over 100 µM in the test with HCT-15 colon.

For `CN(C)c1nc(NC23CC4CC(CC(C4)C2)C3)nc(N(C)C)n1`, the TGI in the test on RPMI-8226 leukemia is 12.7 µM; with SR leukemia, 53.9 µM; with MOLT-4 leukemia, over 57.3 µM; with UACC-62 melanoma it was over 76.1 µM; with HOP-62 NSCLC, over 90.4 µM; with CCRF-CEM leukemia it was 28.7 µM. Further, the TGI with CAKI-1 renal is over 100 µM; in the test with OVCAR-5 ovarian, over 100 µM; in the test with 786-0 renal it was over 89.5 µM; in the test on HOP-92 NSCLC it was 82.2 µM; in the test on UACC-257 melanoma, over 100 µM; in the test on HCT-15 colon, 41.2 µM.

For the molecule `Cn1c(=O)c2c(nc3n(Cc4ccccc4)c(=O)c(NCCBr)cn23)n(C)c1=O`, the TGI in the test on RPMI-8226 leukemia was over 100 µM; with SR leukemia, 52.9 µM; in the test with MOLT-4 leukemia, over 100 µM; in the test on UACC-62 melanoma it was over 100 µM; with HOP-62 NSCLC it was 43.2 µM; with CCRF-CEM leukemia, over 100 µM. The TGI in the test on CAKI-1 renal is 37.6 µM; in the test with OVCAR-5 ovarian it was over 100 µM; in the test with 786-0 renal, 37 µM; in the test with HOP-92 NSCLC, 36.2 µM; in the test on UACC-257 melanoma it was over 100 µM; with HCT-15 colon, over 100 µM.

Turning to `COC(=O)/C=C(\C)C(=O)N(C)c1ccccc1I`, the TGI in the test on RPMI-8226 leukemia, in the test with SR leukemia, in the test with MOLT-4 leukemia, in the test with UACC-62 melanoma, in the test with HOP-62 NSCLC and in the test on CCRF-CEM leukemia was over 100 µM each time. In addition, the TGI with CAKI-1 renal, in the test on OVCAR-5 ovarian, in the test with 786-0 renal, with HOP-92 NSCLC, in the test with UACC-257 melanoma and in the test on HCT-15 colon was over 100 µM each time.

Turning to `O=c1[nH]nc(-c2ccccc2)n1/N=C/c1ccncc1`, the TGI in the test with RPMI-8226 leukemia, in the test with SR leukemia, in the test with MOLT-4 leukemia, with UACC-62 melanoma, with HOP-62 NSCLC and in the test with CCRF-CEM leukemia was over 100 µM throughout. Also, the TGI in the test with CAKI-1 renal, in the test on OVCAR-5 ovarian, in the test on 786-0 renal, in the test on HOP-92 NSCLC, in the test with UACC-257 melanoma and in the test with HCT-15 colon was over 100 µM each time.

Turning to `Cc1ccc(OCC2OC(n3cnc4nc(Cl)nc(Cl)c43)CC2Oc2ccc(C)cc2)cc1` (centres undefined), the TGI is 9.35 µM in the test with RPMI-8226 leukemia; 5.65 µM with SR leukemia; 5.76 µM in the test with MOLT-4 leukemia; 20.5 µM with UACC-62 melanoma; 34.8 µM with HOP-62 NSCLC; over 23.1 µM in the test with CCRF-CEM leukemia. Further, the TGI in the test on CAKI-1 renal came to 9.75 µM; in the test on OVCAR-5 ovarian it was 32.1 µM; in the test with 786-0 renal it was 19.9 µM; in the test on HOP-92 NSCLC it was 9.88 µM; with UACC-257 melanoma, 29.6 µM; in the test on HCT-15 colon, 6.33 µM.

For the molecule `O=C1Sc2ccc(Br)cc2C(=O)Sc2ccccc21`, the TGI came to 16.7 µM in the test on RPMI-8226 leukemia; 4.13 µM with SR leukemia; 19.9 µM with MOLT-4 leukemia; 31.8 µM in the test with UACC-62 melanoma; 28.4 µM in the test on HOP-62 NSCLC; 7.47 µM in the test on CCRF-CEM leukemia. In addition, the TGI in the test with CAKI-1 renal is 29.4 µM; with OVCAR-5 ovarian it was 36.8 µM; in the test on 786-0 renal it was 25.6 µM; in the test with HOP-92 NSCLC, 33.6 µM; in the test with UACC-257 melanoma it was 28.4 µM; in the test on HCT-15 colon, 46.5 µM.

`CCOC(=O)N1CCN(c2ccc3c(C)cc(C)nc3n2)CC1`: the TGI with RPMI-8226 leukemia, in the test with SR leukemia, in the test on MOLT-4 leukemia, in the test with UACC-62 melanoma, with HOP-62 NSCLC and in the test with CCRF-CEM leukemia was over 100 µM each time. Moreover, the TGI in the test with CAKI-1 renal, with OVCAR-5 ovarian, in the test with 786-0 renal, in the test on HOP-92 NSCLC, in the test with UACC-257 melanoma and with HCT-15 colon was over 100 µM in each case.

Take `CCOC(=O)/C(=C\c1ccc(N(C)C)cc1)S(=O)(=O)C(F)(F)C(F)(F)C(F)(F)C(F)(F)F`: the TGI in the test on RPMI-8226 leukemia, with SR leukemia, with MOLT-4 leukemia, with UACC-62 melanoma, in the test with HOP-62 NSCLC and with CCRF-CEM leukemia was over 100 µM throughout. Besides, the TGI with CAKI-1 renal, in the test with OVCAR-5 ovarian, in the test on 786-0 renal, in the test on HOP-92 NSCLC, in the test with UACC-257 melanoma and in the test with HCT-15 colon was over 100 µM throughout.

On to `C/C(=N/NC(=S)Nc1ccccc1Cl)c1cccc(/C(C)=N\NC(=S)Nc2ccccc2Cl)n1`, for which the TGI in the test on RPMI-8226 leukemia, in the test with SR leukemia, with MOLT-4 leukemia, with UACC-62 melanoma, in the test on HOP-62 NSCLC and in the test with CCRF-CEM leukemia was over 100 µM in each case. Further, the TGI with CAKI-1 renal, with OVCAR-5 ovarian, with 786-0 renal, in the test with HOP-92 NSCLC, in the test on UACC-257 melanoma and in the test with HCT-15 colon was over 100 µM throughout.

As for `CN(C)c1ccc(/C=C2\N=C(NN)NC2=O)cc1`, the TGI in the test on RPMI-8226 leukemia, in the test on SR leukemia, in the test with MOLT-4 leukemia, with UACC-62 melanoma, in the test with HOP-62 NSCLC and in the test with CCRF-CEM leukemia was over 100 µM each time. Further, the TGI in the test on CAKI-1 renal, with OVCAR-5 ovarian, in the test on 786-0 renal, in the test with HOP-92 NSCLC, in the test with UACC-257 melanoma and in the test on HCT-15 colon was over 100 µM in each case.

For the molecule `O=C1CSC(/C(=C\c2ccc(Cl)cc2)c2nc3ccccc3[nH]2)=N1`, the TGI in the test with RPMI-8226 leukemia is over 100 µM; in the test with SR leukemia, 94.4 µM; in the test on MOLT-4 leukemia, over 100 µM; in the test with UACC-62 melanoma it was 33.5 µM; in the test on HOP-62 NSCLC it was 5.82 µM; with CCRF-CEM leukemia it was over 75.7 µM. The TGI with CAKI-1 renal was found to be 21.5 µM; in the test on OVCAR-5 ovarian it was 33.5 µM; in the test on 786-0 renal, 26.4 µM; in the test with HOP-92 NSCLC, 25.1 µM; in the test on UACC-257 melanoma, 34.7 µM; with HCT-15 colon it was 52.4 µM.

As for `CCOC(=O)c1cc(C(=O)c2ccccc2)n2nc(-c3ccc(Cl)cc3)ccc12`, the TGI in the test with RPMI-8226 leukemia is over 100 µM; in the test with SR leukemia, over 100 µM; with MOLT-4 leukemia, over 100 µM; in the test on UACC-62 melanoma, 39.3 µM; in the test with HOP-62 NSCLC, 34.8 µM; with CCRF-CEM leukemia it was over 100 µM. Moreover, the TGI in the test with CAKI-1 renal is 81.3 µM; with OVCAR-5 ovarian it was 58 µM; in the test with 786-0 renal, 33 µM; with HOP-92 NSCLC, 60.5 µM; with UACC-257 melanoma, 97.1 µM; with HCT-15 colon, over 100 µM.

As to `CC(=O)N1CCc2c([nH]c3ccc(Br)cc23)C1c1ccccc1` (centres undefined), the TGI in the test with RPMI-8226 leukemia, in the test on SR leukemia, in the test with MOLT-4 leukemia, in the test on UACC-62 melanoma, in the test with HOP-62 NSCLC and in the test on CCRF-CEM leukemia was over 10 µM throughout. The TGI in the test on CAKI-1 renal, with OVCAR-5 ovarian, in the test with 786-0 renal, in the test on HOP-92 NSCLC, in the test on UACC-257 melanoma and in the test with HCT-15 colon was over 10 µM throughout.

As to `O=C(NCCC(F)(F)C(F)(F)C(F)(F)C(F)(F)F)NC1OC(CO)C(O)C(O)C1O` (centres undefined), the TGI in the test on RPMI-8226 leukemia, in the test with SR leukemia, in the test on MOLT-4 leukemia, in the test on UACC-62 melanoma, in the test with HOP-62 NSCLC and with CCRF-CEM leukemia was over 100 µM throughout. Besides, the TGI in the test with CAKI-1 renal, in the test on OVCAR-5 ovarian, with 786-0 renal, in the test with HOP-92 NSCLC, with UACC-257 melanoma and in the test with HCT-15 colon was over 100 µM throughout.
